Tested on: hyperglycemic response to the oral administration of glucose
Test: Inhibition of the hyperglycemic response to oral glucose in the normoglycemic mouse
Type: in vivo, Swiss albino mice
Details: mice, administration at 3 mg/kg; reference 2-(1,2,3,4-tetrahydroxybutyl)-5-(2′,3′,4′-trihydroxybutyl)]pyrazine
Procedure: The hypoglycemic activity of the products of formula (I) was determined with respect to the hyperglycemic response to the oral administration of glucose in the normoglycemic mouse, according to the protocol described in Example 3. Swiss albino mice weighing between 22 and 26 g are left without nourishment for 2 hours. At the end of this period, the glycemia is measured and, immediately after, a dose of glucose (2 g/kg) is administered orally. Thirty minutes later, the glycemia is once again measured. The mice which respond by a hyperglycemia greater than 170 mg/dl are selected and used to detect the hypoglycemic activity of the products according to the invention. The mice thus chosen are divided into groups of at least 10 animals. Several groups receive doses of 3 to 50 mg/kg of product in a vehicle, such as water or a mixture of methylcellulose/tween and water, once daily by gastric intubation. The treatment lasts 4 days. On the 4th day, after the final treatment, the animals receive a dose of glucose (2 g/kg) and the glycemia is measured 20 to 40 minutes later. The percentage of inhibition of the hyperglycemic response to the administration of glucose is calculated with respect to the response measured in the group treated with the vehicle.

In the case of `O=C(OC[C@@H](O)[C@@H](O)[C@H](O)c1cnc(C[C@H](O)[C@H](O)COC(=O)C2CCCCC2)cn1)C1CCCCC1` [Example 1, 4,4′-O,O-Dicyclohexyloyl-2-[(1R,2S,3R)(1,2,3,4-tetrahydroxylbutyl)]-5-[(2′S,3′R)(2′,3′,4′-trihydroxybutyl)]pyrazine], the “relative activity with respect to the reference product” value is reported as 149%.

— US6818637B2, “Polyhydroxypyrazine derivatives, their preparation and the pharmaceutical compositions which comprise them” (Aventis Pharma SA, priority 1999, dated 2004)
